“And” between values parts separate entries of the source, which are not always exact repeats. Identical values can stand only once.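 Where inhibition never reached the appropriate level, the endpoint shown equals the highest concentration tested. Otherwise, values were interpolated linearly from a five-concentration, 48-hour dose response in 96-well plates. At the GI50, growth is halved. TGI is the concentration that stops growth completely.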
tested on: MDA-MB-468 breast; assay: DTP human tumour cell line panel, 48 h

SMILES | TGI | GI50
NC(N)=N/N=C(/c1ccccc1)c1ccccc1F | 4940 nM | –
CCSc1ncc(Br)c(Sc2nc(N)nc3nc[nH]c23)n1 | 7810 nM | 1720 nM
CN(C)c1ccc(N=C2C=CC(=C(C#N)C#N)c3ccccc32)cc1 | 2350 nM | 393 nM
CCOc1ccc(Nc2nc(-c3c(C)nc4ncccn34)cs2)cc1 | 15000 nM | 303 nM
Cc1cc(Nc2ccc(Cl)cc2)nc(NCCCNc2ccnc3cc(Cl)ccc23)n1 | 3180 nM | 1610 nM
COc1ccc(/C=C/C(C)=N/OCC(=O)Nc2ccc(Cl)cc2)cc1 | 8340 nM | 2520 nM
CNCc1cccc2c1OCCOCCOCCC(C)S(=O)(=O)c1ccc(cc1)-c1cnc(N)c(n1)C(=O)N2 (stereo not drawn) | 3710 nM | 1290 nM
CNCc1ccc(-c2[nH]c3cc(F)cc4c3c2CCNC4=O)cc1 | 25200 nM | 10800 nM
CC1=C(CNO)C2=C(C)C3(CC3)[C@@](C)(O)C(=O)C2=C1 | 920 nM | 319 nM
COc1ccc(/C=C\c2cc(OC)c(OC)c(OC)c2)c(NS(=O)(=O)c2ccc(C(C)(C)C)cc2)c1O | 22700 nM | 304 nM
COc1cc(/C=C\c2cc(OC)c(OC)c(OC)c2)cc(NS(=O)(=O)c2ccc(Cl)cc2)c1OC | 19400 nM | 271 nM
Cn1ccnc1C(=O)/C=C/c1ccc(C(=O)Nc2c(F)c(F)c(F)c(F)c2F)cc1 | 4330 nM | 1720 nM
Cc1ccnc(Nc2ccc([N+](=O)[O-])c(NCCN3CCOCC3)n2)c1 | – | 18.5 nM and 27.3 nM
CC1=C2[C@@H](CC1)[C@]1(C)O[C@@](C3CC3)(C[C@H]1OC(=O)CO)[C@H]2OC(=O)/C=C/c1ccccc1 | 30600 nM | 14600 nM
COc1cc(OC)cc(-c2ccc(-c3ccc(C(=N)N)cn3)s2)c1 | 3320 nM | 1720 nM
COc1ccc(/C(C)=C(\c2ccc(Cl)cc2)c2ccc(OCCN3CCCCCC3)cc2)cc1F | 5890 nM | 2650 nM
O=C(c1ccccc1)C(Br)C(Br)c1ccccc1 (stereo not drawn) | 4650 nM | 2070 nM
N#CC(NC(=O)CCl)=C(Cl)Cl | 3480 nM | 1330 nM

SMILES | TGI | GI50
N#CCC1(n2cc(-c3ncnc4[nH]ccc34)cn2)CN(C2CCN(C(=O)c3ccnc(C(F)(F)F)c3F)CC2)C1 | > 100000 nM | 44200 nM
COc1ccc(-c2cc(-c3ccccc3)nc(NCCNc3ccnc4cc(Cl)ccc34)n2)cc1 | 1210 nM | 300 nM
COc1ccc(OCC(O)CN2CCN(c3ccc(Cl)cc3)CC2)cc1 (stereo not drawn) | > 100000 nM | 8930 nM
CC1(C)CC[C@]2(C(=O)O)CC[C@]3(C)C(=CC[C@@H]4[C@@]5(C)C/C(=C/c6ccco6)C(=O)C(C)(C)[C@@H]5CC[C@]43C)[C@@H]2C1 | 30900 nM | 3290 nM
Nc1nc(=S)c2[nH]cnc2[nH]1 | 1230 nM and 8930 nM | 150 nM and 1040 nM
N/C(=N\C(N)=N\c1nc2ccccc2s1)c1cnccn1 | 6070 nM | 2470 nM
C#Cc1cccc(NC(=O)C2CCCN(C(=O)CCl)C2)c1 (stereo not drawn) | > 82500 nM | > 82500 nM
CCN(CC)CCNc1ccc([N+](=O)[O-])c2sc3cc(Cl)ccc3c(=O)c12 | 61600 nM | 17300 nM
COC(=O)c1ccc2[nH]c(O)c(C(=Nc3ccc(N(C)C(=O)CN4CCN(C)CC4)cc3)c3ccccc3)c2c1 | 2990 nM | 1280 nM
CCN1CCN(c2nc(NNC(=O)c3ccccc3)nc(N3CCN(C(c4ccccc4)c4ccccc4)CC3)n2)CC1 | 4690 nM | 1940 nM
Clc1ccc2c(NCCCN3CCN(c4nc(N5CCOCC5)nc5ccccc45)CC3)ccnc2c1 | 3660 nM | 1830 nM
COc1cccc(C2C(C#N)=C(N)Oc3cc4c(cc32)OCO4)c1 (stereo not drawn) | 665 nM | 24.4 nM
NC(=O)c1ncn(C2OC(CO)C(O)C2O)c1N (stereo not drawn) | > 100000 nM | 75600 nM
O=C(N/N=C/c1ccc(F)cc1)c1ccc(C(F)(F)F)nc1Nc1cccc(C(F)(F)F)c1 | 1510 nM | 327 nM
COc1ccc(Cc2nc3cc(OC)c(OC)cc3c(=O)[nH]2)cc1 | 17100 nM | 3320 nM
C#CC#CC#CC#CC#CC#CC#CC#CC[C@@H]1OC[C@@H](COC(=O)O[C@@H](C(=O)O[C@H]2C[C@@]3(O)[C@@H](OC(=O)c4ccccc4)[C@@H]4[C@]5(OC(C)=O)CO[C@@H]5C[C@H](O)[C@@]4(C)C(=O)[C@H](OC(C)=O)C(=C2C)C3(C)C)[C@@H](NC(=O)c2ccccc2)c2ccccc2)O1 | 560 nM | 108 nM
O=C(OC[C@@H]1CO1)c1cccc2c(=O)c3ccccc3[nH]c12 | 2790 nM | 883 nM
